From paper PMC9676650, “Binding pocket stabilization by high-throughput screening of yeast display libraries” (Frontiers in Molecular Biosciences, 2022)
Residue numbers refer to the chain shown, from its start.

Assays:
[1] = target: T1, FKBP51 WT (FK1 domain) (Homo sapiens, UniProt Q13451); assay: Fluorescence polarization tracer binding, FKBP51 WT; settings: for Fold change in Kd improvement: FKBP51 WT (reference); for Kd: FKBP51 WT, 0.5 nM SAFit-FL, 5 nM Mcyc-TA or 1 nM FK [431]-TA, 30 min room temperature, 3 independent experiments
T1 construct: made in house; host or cells: E. coli BL21 (DE3)
T1 sequence (Q13451 1-140): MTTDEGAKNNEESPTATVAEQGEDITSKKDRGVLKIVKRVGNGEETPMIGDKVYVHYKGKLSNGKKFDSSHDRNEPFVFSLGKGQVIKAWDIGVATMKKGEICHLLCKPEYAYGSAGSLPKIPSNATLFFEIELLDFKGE
Text: (§1) All ligands and tracers used for fluorescence polarization assays had purities of more than 95%. The following ligands and tracers were used for fluorescence polarization and FACS screening experiments: •SAFit-FL tracer (1): Fluorescein conjugated analog of the iFit ligand class. •Mcyc-TA tracer (2): TAMRA conjugated macrocyclic ligand (5). •FK [431]-TA tracer (3): TAMRA conjugated FK [431] ligand (6). •SAFit1 ligand (4): analog of the iFit ligand class. •macrocyclic ligand (5):macrocyclic analog of the SAFit class ligands. •FK [431] ligand (6):bicyclic analog of the immunosuppressive drug FK506
(§2) The binding of the generated FKBP51 variants to different conformation-sensitive FKBP ligands was investigated by fluorescence polarization assays. Therefore, a serial dilution of the respective FKBP51 variant in assay buffer (20 mM HEPES pH 8.0, 150 mM NaCl, 0.015% Triton X-100) was placed in a 384-well assay plate and a defined amount of the respective fluorescent tracer (0.5 nM of the SAFit based tracer SAFit-FL (1), 5 nM of the macrocyclic tracer Mcyc-TA 2) or 1 nM of the FK [431]-TA 3) in assay buffer was added to the protein buffer mixture. After incubation for 30 min at room temperature, the fluorescence polarization was measured with a plate reader. The obtained results for each 3 independent experiments were normalized with respect to the maximal binding signal and fitted to a one-site binding model as described by [Wang et al., 1992] yielding the respective binding constants. tracer bound=100/Lt×0.5×(Rt+Lt+KD−(Rt+Lt+KD)^2−4×LtRt) With L t , total concentration of the tracer, R t , total concentration of the receptor and K D binding constant of the complex RL.

[2] = target: T2, FKBP51 variant N63A (Homo sapiens, UniProt Q13451, N63A); assay: Fluorescence polarization tracer binding, FKBP51 N63A; settings: for Fold change in Kd improvement: FKBP51 N63A compared to WT; for Kd: FKBP51 N63A, 0.5 nM SAFit-FL, 5 nM Mcyc-TA or 1 nM FK [431]-TA, 30 min room temperature
T2 construct: made in house; host or cells: E. coli BL21 (DE3)
T2 sequence (Q13451 1-140 N63A): T1 sequence (Q13451 1-140) with N63A
Text: as §1, §2

[3] = target: T3, FKBP51 variant G64A (Homo sapiens, UniProt Q13451, G64A); assay: Fluorescence polarization tracer binding, FKBP51 G64A; settings: for Fold change in Kd improvement: FKBP51 G64A compared to WT; for Kd: FKBP51 G64A, 0.5 nM SAFit-FL, 5 nM Mcyc-TA or 1 nM FK [431]-TA, 30 min room temperature
T3 construct: made in house; host or cells: E. coli BL21 (DE3)
T3 sequence (Q13451 1-140 G64A): T1 sequence (Q13451 1-140) with G64A
Text: as §1, §2

[4] = target: T4, FKBP51 variant G64D (Homo sapiens, UniProt Q13451, G64D); assay: Fluorescence polarization tracer binding, FKBP51 G64D; settings: for Fold change in Kd improvement: FKBP51 G64D compared to WT; for Kd: FKBP51 G64D, 0.5 nM SAFit-FL, 5 nM Mcyc-TA or 1 nM FK [431]-TA, 30 min room temperature
T4 construct: made in house; host or cells: E. coli BL21 (DE3)
T4 sequence (Q13451 1-140 G64D): T1 sequence (Q13451 1-140) with G64D
Text: as §1, §2

[5] = target: T5, FKBP51 variant G64R (Homo sapiens, UniProt Q13451, G64R); assay: Fluorescence polarization tracer binding, FKBP51 G64R; settings: for Fold change in Kd improvement: FKBP51 G64R compared to WT; for Kd: FKBP51 G64R, 0.5 nM SAFit-FL, 5 nM Mcyc-TA or 1 nM FK [431]-TA, 30 min room temperature
T5 construct: made in house; host or cells: E. coli BL21 (DE3)
T5 sequence (Q13451 1-140 G64R): T1 sequence (Q13451 1-140) with G64R
Text: as §1, §2

[6] = target: T6, FKBP51 variant G64K (Homo sapiens, UniProt Q13451, G64K); assay: Fluorescence polarization tracer binding, FKBP51 G64K; settings: for Fold change in Kd improvement: FKBP51 G64K compared to WT; for Kd: FKBP51 G64K, 0.5 nM SAFit-FL, 5 nM Mcyc-TA or 1 nM FK [431]-TA, 30 min room temperature
T6 construct: made in house; host or cells: E. coli BL21 (DE3)
T6 sequence (Q13451 1-140 G64K): T1 sequence (Q13451 1-140) with G64K
Text: as §1, §2

[7] = target: T7, FKBP51 variant F67R (Homo sapiens, UniProt Q13451, F67R); assay: Fluorescence polarization tracer binding, FKBP51 F67R; settings: for Fold change in Kd improvement: FKBP51 F67R compared to WT; for Kd: FKBP51 F67R, 0.5 nM SAFit-FL, 5 nM Mcyc-TA or 1 nM FK [431]-TA, 30 min room temperature
T7 construct: made in house; host or cells: E. coli BL21 (DE3)
T7 sequence (Q13451 1-140 F67R): T1 sequence (Q13451 1-140) with F67R
Text: as §1, §2

[8] = target: T8, FKBP51 variant F67W (Homo sapiens, UniProt Q13451, F67W); assay: Fluorescence polarization tracer binding, FKBP51 F67W; settings: for Fold change in Kd improvement: FKBP51 F67W compared to WT
T8 construct: made in house; host or cells: E. coli BL21 (DE3)
T8 sequence (Q13451 1-140 F67W): T1 sequence (Q13451 1-140) with F67W
Text: as §1, §2

[9] = target: T9, FKBP51 variant S69Y (Homo sapiens, UniProt Q13451, S69Y); assay: Fluorescence polarization tracer binding, FKBP51 S69Y; settings: for Fold change in Kd improvement: FKBP51 S69Y compared to WT; for Kd: FKBP51 S69Y, 0.5 nM SAFit-FL, 5 nM Mcyc-TA or 1 nM FK [431]-TA, 30 min room temperature
T9 construct: made in house; host or cells: E. coli BL21 (DE3)
T9 sequence (Q13451 1-140 S69Y): T1 sequence (Q13451 1-140) with S69Y
Text: as §1, §2

Row | Compound | Fold change in Kd improvement [1] [fold] | Kd [1] [nM] | Fold change in Kd improvement [2] [fold] | Kd [2] [nM] | Fold change in Kd improvement [3] [fold] | Kd [3] [nM] | Fold change in Kd improvement [4] [fold] | Kd [4] [nM] | Fold change in Kd improvement [5] [fold] | Kd [5] [nM] | Fold change in Kd improvement [6] [fold] | Kd [6] [nM] | Fold change in Kd improvement [7] [fold] | Kd [7] [nM] | Fold change in Kd improvement [8] [fold] | Fold change in Kd improvement [9] [fold] | Kd [9] [nM] | Kd ([8]; FKBP51 F67W, 0.5 nM SAFit-FL, 5 nM Mcyc-TA or 1 nM FK [431]-TA, 30 min room temperature) [nM]
1 | CN(C)c1ccc2c(-c3cc(C(=O)NCCn4cc([C@H]5CN(Cc6ccccn6)C(=O)[C@@H]6CCC[C@H]5N6S(=O)(=O)c5cc(Cl)cc(Cl)c5)nn4)ccc3C(=O)O)c3ccc(=[N+](C)C)cc-3oc2c1 [FK [431]-TA] | 1 | 5.1 ± 0.1 | 0.850 | 6 ± 0.2 | 0.084 | 61 ± 2 | 0.300 | 17 ± 1 | 0.159 | 32 ± 2 | 0.283 | 18 ± 1 | 0.016 | 312 ± 14 | 0.004 | 0.077 | 66 ± 2 | 
2 | COc1ccc(CC[C@H]2OC(=O)[C@@H]3CCCCN3C(=O)[C@@H](C3CCCCC3)NC(=O)C(C)(C)NC(=O)COc3cc(OCCNC(=O)c4ccc(C(=O)O)c(-c5c6ccc(=[N+](C)C)cc-6oc6cc(N(C)C)ccc56)c4)cc2c3)cc1OC [Mcyc-TA] | 1.00 | 24 ± 2 | 5.58 | 4.3 ± 0.5 | 5.71 | 4.2 ± 0.5 | 2.76 | 8.7 ± 1 | 2.42 | 9.9 ± 1 | 6.86 | 3.5 ± 0.5 | 1.00 | 24 ± 3 | 1.50 | 1.41 | 17 ± 1 | 16 ± 1
